Here are results for 7 molecules from patent US10696665B2, “Mutant IDH1 inhibitors” (Eli Lilly and Company, priority 2016, dated 2020).

Sequence of Wild-type IDH1 (O75874 whole entry): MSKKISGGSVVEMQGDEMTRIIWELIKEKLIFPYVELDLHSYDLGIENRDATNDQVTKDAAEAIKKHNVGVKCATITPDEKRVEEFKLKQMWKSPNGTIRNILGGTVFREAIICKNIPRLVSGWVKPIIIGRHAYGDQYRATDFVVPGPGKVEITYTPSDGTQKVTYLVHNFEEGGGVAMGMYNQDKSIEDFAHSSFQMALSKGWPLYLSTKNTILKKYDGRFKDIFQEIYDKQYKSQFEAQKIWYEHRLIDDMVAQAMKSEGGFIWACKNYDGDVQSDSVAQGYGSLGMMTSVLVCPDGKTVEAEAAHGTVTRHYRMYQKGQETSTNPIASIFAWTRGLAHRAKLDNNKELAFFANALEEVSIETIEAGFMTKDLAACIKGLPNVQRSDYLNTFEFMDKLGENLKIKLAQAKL

The target of the assay is Wild-type IDH1 (Homo sapiens (Human), UniProt O75874). Put plainly: Biochemical assay for wild-type IDH1 enzyme (isocitrate to αKG). As to conditions: mean ± SEM. The method, then:
IDH1 and IDH2 enzymes catalyze the conversion of isocitrate to αKG. Wild-type IDH1 (National Center for Biotechnology Information, Accession: NP_001269316.1) and IDH2 (National Center for Biotechnology Information, Accession: EAX02082.1) proteins containing N-terminal His-tag are expressed in E. coli and purified using nickel affinity chromatography by methods commonly used and well known to those skilled in the art. The enzyme assays are carried out in V-bottom 96 well polypropylene plates containing 100 mM Tris-HCl buffer at pH 7.5, 1 mM DTT, 0.005% TRITON™ X-100, 120 mM NaCl. For the IDH1 wild-type assay isocitrate, NADP^+ and MnCl2 are included at the concentrations of 85 μM, 50 μM and 20 μM respectively. For the IDH2 wild-type assay isocitrate, NADP^+ and MnCl2 are included at the concentrations of 30 μM, 50 μM and 10 μM respectively. Inhibitors dissolved in a DMSO stock solution are diluted in the reaction mixture at a final DMSO concentration of 4%. The enzyme assay is terminated (quenched) by adding ACN (50:50) containing d (d6-αKG) as an internal standard for mass spectrometry analysis. Ten microliters of reaction mixture is combined with 100 μL of water, 50 μL of 1 M O-benzylhydroxylamine in pyridine buffer (8.6% pyridine, pH 5), and 50 μL of 1 M EDC in pyridine buffer. Following derivatization at room temperature for one hour, samples are extracted with EtOAc (600 μL). […] of the upper layer is removed, dried under heated nitrogen, and reconstituted with MeOH/water (1:1) (100 μL). Ten μL of derivatized sample is injected onto an LC-MS system consisting of a Shimadzu Prominence 20A HPLC system and a Thermo Quantum Ultra™ triple quadrupole mass spectrometer. Analytes are separated on a Waters XBridge™ C18 column (2.1×50 mm, […]) with a flow rate of 0.6 mL/minute. Mobile phase A is 0.1% formic acid in water and mobile phase B is MeOH. The αKG signal detected is transformed into analyte concentration using a calibration curve generated using known αKG concentrations. […] IC50 values are obtained from the individual % inhibition values at different compound concentrations using a 4-parameter equation. These calculations are carried out using Activity Base (IDBS) or Screener (Genedata) data analysis programs.
Regarding `C=CC(=O)N1CCN(Cc2ccc([C@H](C)Nc3nccc(N4C(=O)OC[C@@H]4CC)n3)cc2)CC1` [Example 2, (S)-3-(2-(((S)-1-(4-((4-acryloylpiperazin-1-yl)methyl)phenyl)ethyl)amino)pyrimidin-4-yl)-4-ethyloxazolidin-2-one], the IC50 is 3.15 ± 0.07 µM.

On to `C=CC(=O)N1CCN(Cc2ccc([C@H](C)Nc3nccc(N4C(=O)OC[C@@H]4C)n3)cc2)CC1` [Example 3, (S)-3-(2-(((S)-1-(4-((4-acryloylpiperazin-1-yl)methyl)phenyl)ethyl)amino)pyrimidin-4-yl)-4-methyloxazolidin-2-one], for which the IC50 worked out at 15.5 ± 0.5 µM.

With `C=CC(=O)N1CCN(Cc2ccc([C@H](C)Nc3ncc(F)c(N4C(=O)OC[C@@H]4C(C)C)n3)cc2)CC1` [Example 5, (S)-3-(2-(((S)-1-(4-((4-acryloylpiperazin-1-yl)methyl)phenyl)ethyl)amino)-5-fluoropyrimidin-4-yl)-4-isopropyloxazolidin-2-one], the IC50 turned out to be 2.46 ± 0.3 µM.

With `C=CC(=O)N1CCN(C(CC2CC2)c2ccc([C@H](C)Nc3nccc(N4C(=O)OC[C@@H]4[C@@H](C)O)n3)cc2)CC1` (stereo partly shown) [Example 26], 0.145 µM corresponded to half-maximal inhibition (IC50).

Turning to `C=CC(=O)N1CCN(Cc2ccc([C@H](C)Nc3nccc(N4C(=O)OC[C@@H]4C(C)C)n3)cc2)CC1` [Example 1, (S)-3-(2-(((S)-1-(4-((4-Acryloylpiperazin-1-yl)methyl)phenyl)ethyl)amino)pyrimidin-4-yl)-4-isopropyloxazolidin-2-one], the IC50 is 1.56 ± 0.2 µM.

Regarding `C=CC(=O)N1CCN(Cc2ccc([C@H](C)Nc3nccc(N4C(=O)OCC4(C)C)n3)cc2)CC1` [Example 4, (S)-3-(2-((1-(4-((4-acryloylpiperazin-1-yl)methyl)phenyl)ethyl)amino)pyrimidin-4-yl)-4,4-dimethyloxazolidin-2-one], the half-inhibitory concentration (IC50) came to 6.76 ± 1.35 µM.

As for `C=CC(=O)N1CCN(Cc2ccc([C@H](C)Nc3nc(F)cc(N4C(=O)OCC4(C)C)n3)cc2)CC1` [Example 11, (S)-3-(2-((1-(4-((4-acryloylpiperazin-1-yl)methyl)phenyl)ethyl)amino)-6-fluoropyrimidin-4-yl)-4,4-dimethyloxazolidin-2-one], inhibition was half-maximal at 2.2 µM (IC50). This IC50 lies about 3.1-fold lower than the previous one.
